In ChEMBL document CHEMBL4184109, “Design, synthesis, and structure-activity relationship studies of novel tetrazole antifungal agents with potent activity, broad antifungal spectrum and high selectivity” (Bioorg Med Chem Lett, 2018):
Converted amounts (≈) assume the structure as drawn.

Legend:
Type in all cases: functional
[1] = system: Trichophyton rubrum; experiment: Antifungal activity against Trichophyton rubrum by serial dilution method
[2] = system: Nannizzia gypsea; experiment: Antifungal activity against Microsporum gypseum by serial dilution method
[3] = system: Cryptococcus neoformans; experiment: Antifungal activity against Cryptococcus neoformans after 72 hrs by serial dilution method
[4] = system: Candida parapsilosis; experiment: Antifungal activity against Candida parapsilosis ATCC 22019 after 24 hrs by serial dilution method; details: Lodderomyces parapsilosis, ATCC 22019, 24 h
[5] = system: Candida albicans; experiment: Antifungal activity against Candida albicans SC5314 after 24 hrs by serial dilution method; details: SC5314, 24 h
[6] = system: Aspergillus fumigatus; experiment: Antifungal activity against Aspergillus fumigatus after 48 hrs by serial dilution method
[7] = system: Candida albicans; experiment: Antifungal activity against Candida albicans Y0109 after 24 hrs by serial dilution method; details: Y0109, 24 h
[8] = system: Nakaseomyces glabratus; experiment: Antifungal activity against Candida glabrata after 24 hrs by serial dilution method

SMILES | MIC80 [1] | MIC80 [2] | MIC80 [3] | MIC80 [4] | MIC80 [5] | MIC80 [6] | MIC80 [7] | MIC80 [8]
O=c1n(-c2ccc(C(F)(F)C(O)(Cn3cnnn3)c3ccc(F)cc3F)nc2)cnn1C1CCC(F)(F)CC1 (stereo not drawn) | 2 µg/mL (≈ 3.61 µM) | > 64 µg/mL | 0.5 µg/mL (≈ 0.902 µM) | 0.5 µg/mL (≈ 0.902 µM) | 1 µg/mL (≈ 1.8 µM) | > 64 µg/mL | 0.5 µg/mL (≈ 0.902 µM) | 2 µg/mL (≈ 3.61 µM)
CC(C)C1CCC(n2ncn(-c3ccc(C(F)(F)C(O)(Cn4cnnn4)c4ccc(F)cc4F)nc3)c2=O)CC1 (stereo not drawn) | 1 µg/mL (≈ 1.78 µM) | > 64 µg/mL | 16 µg/mL (≈ 28.5 µM) | 16 µg/mL (≈ 28.5 µM) | 16 µg/mL (≈ 28.5 µM) | > 64 µg/mL | 8 µg/mL (≈ 14.3 µM) | 16 µg/mL (≈ 28.5 µM)
O=c1n(-c2ccc(C(F)(F)C(O)(Cn3cnnn3)c3ccc(F)cc3F)nc2)cnn1CCC1CCCCC1 (stereo not drawn) | 8 µg/mL (≈ 14.6 µM) | 4 µg/mL (≈ 7.32 µM) | 4 µg/mL (≈ 7.32 µM) | 0.5 µg/mL (≈ 0.915 µM) | 1 µg/mL (≈ 1.83 µM) | > 64 µg/mL | 0.5 µg/mL (≈ 0.915 µM) | 1 µg/mL (≈ 1.83 µM)
CCC(C)n1ncn(-c2ccc(C(F)(F)C(O)(Cn3cnnn3)c3ccc(F)cc3F)nc2)c1=O (stereo not drawn) | – | – | 4 µg/mL (≈ 8.12 µM) | 0.25 µg/mL (≈ 0.508 µM) | 1 µg/mL (≈ 2.03 µM) | > 8 µg/mL | 1 µg/mL (≈ 2.03 µM) | 2 µg/mL (≈ 4.06 µM)
Cc1ccc(Cn2ncn(-c3ccc(C(F)(F)C(O)(Cn4cnnn4)c4ccc(F)cc4F)nc3)c2=O)cc1 (stereo not drawn) | – | – | 2 µg/mL (≈ 3.7 µM) | 0.25 µg/mL (≈ 0.463 µM) | 1 µg/mL (≈ 1.85 µM) | > 8 µg/mL | 1 µg/mL (≈ 1.85 µM) | 2 µg/mL (≈ 3.7 µM)
N#Cc1ccc(Cn2ncn(-c3ccc(C(F)(F)C(O)(Cn4cnnn4)c4ccc(F)cc4F)nc3)c2=O)cc1 (stereo not drawn) | – | – | 4 µg/mL (≈ 7.25 µM) | 0.5 µg/mL (≈ 0.907 µM) | 2 µg/mL (≈ 3.63 µM) | > 8 µg/mL | 1 µg/mL (≈ 1.81 µM) | 4 µg/mL (≈ 7.25 µM)
O=c1n(-c2ccc(C(F)(F)C(O)(Cn3cnnn3)c3ccc(F)cc3F)nc2)cnn1Cc1ccc(C(F)(F)F)cc1 (stereo not drawn) | – | – | 4 µg/mL (≈ 6.73 µM) | 0.5 µg/mL (≈ 0.841 µM) | 2 µg/mL (≈ 3.36 µM) | > 8 µg/mL | 1 µg/mL (≈ 1.68 µM) | 4 µg/mL (≈ 6.73 µM)
O=c1n(-c2ccc(C(F)(F)C(O)(Cn3cnnn3)c3ccc(F)cc3F)nc2)cnn1C1CC=CCC1 (stereo not drawn) | 2 µg/mL (≈ 3.87 µM) | 8 µg/mL (≈ 15.5 µM) | 1 µg/mL (≈ 1.94 µM) | 0.125 µg/mL (≈ 0.242 µM) | 0.5 µg/mL (≈ 0.968 µM) | > 64 µg/mL | 0.5 µg/mL (≈ 0.968 µM) | 1 µg/mL (≈ 1.94 µM)
O=c1n(-c2ccc(C(F)(F)C(O)(Cn3cnnn3)c3ccc(F)cc3F)nc2)cnn1Cc1cccnc1 (stereo not drawn) | – | – | 2 µg/mL (≈ 3.79 µM) | 8 µg/mL (≈ 15.2 µM) | 8 µg/mL (≈ 15.2 µM) | > 64 µg/mL | 4 µg/mL (≈ 7.58 µM) | 4 µg/mL (≈ 7.58 µM)
O=c1n(-c2ccc(C(F)(F)C(O)(Cn3cnnn3)c3ccc(F)cc3F)nc2)cnn1CC1CCCCC1 (stereo not drawn) | 2 µg/mL (≈ 3.76 µM) | 4 µg/mL (≈ 7.51 µM) | 1 µg/mL (≈ 1.88 µM) | 0.25 µg/mL (≈ 0.469 µM) | 1 µg/mL (≈ 1.88 µM) | > 64 µg/mL | 0.5 µg/mL (≈ 0.939 µM) | 1 µg/mL (≈ 1.88 µM)
O=c1n(-c2ccc(C(F)(F)C(O)(Cn3cnnn3)c3ccc(F)cc3F)nc2)cnn1C1CCCCCC1 (stereo not drawn) | – | > 64 µg/mL | 0.5 µg/mL (≈ 0.939 µM) | 0.5 µg/mL (≈ 0.939 µM) | 1 µg/mL (≈ 1.88 µM) | > 64 µg/mL | 0.5 µg/mL (≈ 0.939 µM) | 1 µg/mL (≈ 1.88 µM)
O=c1n(-c2ccc(C(F)(F)C(O)(Cn3cnnn3)c3ccc(F)cc3F)nc2)cnn1CC1CC1 (stereo not drawn) | – | – | 4 µg/mL (≈ 8.16 µM) | 0.25 µg/mL (≈ 0.51 µM) | 0.5 µg/mL (≈ 1.02 µM) | > 8 µg/mL | 0.5 µg/mL (≈ 1.02 µM) | 4 µg/mL (≈ 8.16 µM)
O=c1n(-c2ccc(C(F)(F)C(O)(Cn3cnnn3)c3ccc(F)cc3F)nc2)cnn1Cc1ccccn1 (stereo not drawn) | – | – | 1 µg/mL (≈ 1.9 µM) | 16 µg/mL (≈ 30.3 µM) | 2 µg/mL (≈ 3.79 µM) | > 64 µg/mL | 4 µg/mL (≈ 7.58 µM) | 2 µg/mL (≈ 3.79 µM)
CC1CCC(n2ncn(-c3ccc(C(F)(F)C(O)(Cn4cnnn4)c4ccc(F)cc4F)nc3)c2=O)CC1 (stereo not drawn) | 0.5 µg/mL (≈ 0.939 µM) | > 64 µg/mL | 1 µg/mL (≈ 1.88 µM) | 1 µg/mL (≈ 1.88 µM) | 2 µg/mL (≈ 3.76 µM) | > 64 µg/mL | 1 µg/mL (≈ 1.88 µM) | 2 µg/mL (≈ 3.76 µM)
O=c1n(-c2ccc(C(F)(F)C(O)(Cn3cnnn3)c3ccc(F)cc3F)nc2)cnn1Cc1ccc(Cl)cc1 (stereo not drawn) | – | – | 1 µg/mL (≈ 1.78 µM) | 0.5 µg/mL (≈ 0.891 µM) | 1 µg/mL (≈ 1.78 µM) | > 8 µg/mL | 1 µg/mL (≈ 1.78 µM) | 2 µg/mL (≈ 3.57 µM)
O=C1CCCCC1n1ncn(-c2ccc(C(F)(F)C(O)(Cn3cnnn3)c3ccc(F)cc3F)nc2)c1=O (stereo not drawn) | – | – | > 8 µg/mL | 2 µg/mL (≈ 3.76 µM) | > 8 µg/mL | > 8 µg/mL | 4 µg/mL (≈ 7.51 µM) | > 8 µg/mL
CC(O)Cn1ncn(-c2ccc(C(F)(F)C(O)(Cn3cnnn3)c3ccc(F)cc3F)nc2)c1=O (stereo not drawn) | – | – | 8 µg/mL (≈ 16.2 µM) | 8 µg/mL (≈ 16.2 µM) | > 8 µg/mL | > 8 µg/mL | > 8 µg/mL | > 8 µg/mL
OC(Cn1cncn1)(Cn1cncn1)c1ccc(F)cc1F [FLUCONAZOLE] | 2 µg/mL (≈ 6.53 µM) | 8 µg/mL (≈ 26.1 µM) | 0.5 µg/mL (≈ 1.63 µM) | 1 µg/mL (≈ 3.27 µM) | 0.5 µg/mL (≈ 1.63 µM) | > 64 µg/mL | 2 µg/mL (≈ 6.53 µM) | 0.5 µg/mL (≈ 1.63 µM)
